Experimental data taken from patent publication US8962244B2, “Compounds for modulating RNA binding proteins and uses therefor” (University of Massachusetts, priority 2009, dated 2015).

Tests used:
POS-1 = target: T1, POS-1 (Caenorhabditis elegans, UniProt G5EF15); assay: Fluorescence polarization screening of POS-1 binding to fluorescein-labeled BMF018 RNA; conditions: 192 μM test compound; score = polarization relative to no-drug and no-protein controls; 0.25 = 75% inhibition; lowest score = greatest inhibition; read-out: POS-1 score
T1 construct: 6-his tag (N); made in house; host or cells: E. coli BL21 (DE3) Gold
T1 sequence (G5EF15 80-180): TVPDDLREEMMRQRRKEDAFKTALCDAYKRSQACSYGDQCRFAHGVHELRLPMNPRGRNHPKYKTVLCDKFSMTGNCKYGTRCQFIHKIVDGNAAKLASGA

MEX-5 = target: T2, MEX-5 (Caenorhabditis elegans, UniProt Q9XUB2); assay: Fluorescence polarization screening of MEX-5 binding to fluorescein-labeled TCR2 RNA; conditions: 192 μM test compound; score = polarization relative to no-drug and no-protein controls; 0.25 = 75% inhibition; lowest score = greatest inhibition; read-out: MEX-5 score
T2 construct: The fragment of mex-5 containing the TZF domain (amino acids 236-350) was amplified; made in house; host or cells: Escherichia coli JM109
T2 sequence (Q9XUB2 236-350): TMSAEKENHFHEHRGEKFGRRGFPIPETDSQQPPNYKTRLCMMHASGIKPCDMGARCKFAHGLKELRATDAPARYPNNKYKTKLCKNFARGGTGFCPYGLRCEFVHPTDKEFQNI
Description: The expression and purification of recombinant MEX-5 protein has previously been described in Pagano, J. M., Farley, B. M., McCoig, L. M. and Ryder, S. P. (2007) “Molecular basis of RNA recognition by the embryonic polarity determinant MEX-5;” J Biol Chem; 282, 8883-8894. The fragment of mex-5 containing the TZF domain (amino acids 236-350) was amplified from a commercially available ORFeome clone (Open Biosystems) and sub-cloned into the vector pMal-c (NEB), which encodes maltose binding protein as an N-terminal fusion. This construct is termed pMal-MEX-5 (236-350).
MEX-5 is expressed in Escherchia. coli JM109 liquid cultures grown at 37° C. Cultures were induced during mid log phase by the addition of 0.1 mM isopropyl 1-thio-β-D-galactopyranoside (IPTG) and allowed to grow for three hours. An amount of 100 μM zinc acetate (final concentration) was added at the time of induction. The pelleted cells were resuspended in lysis buffer (50 mM Tris pH 8.8, 200 mM NaCl, 2 mM DTT, EDTA free protease inhibitor tablet (Roche), 100 μM Zn(OAc)2) and lysed by sonication. The soluble protein was purified in three steps using standard chromatography methods: (1) amylose affinity (NEB), (2) Hi-TRAP-Q (GE Healthcare), and (3) Hi-TRAP-S (GE Healthcare). The Q buffer was composed of 50 mM Tris, pH 8.8, 20 mM-1500 mM NaCl, 2 mM DTT, and 100 μM Zn(OAc)2. The S buffer was composed of 50 mM MOPS, pH 6.0, 20 mM-1500 mM NaCl, 2 mM DTT, 100 μM Zn(OAc)2. The pure fractions, determined by coomassie-stained SDS-PAGE, were dialyzed into storage buffer (20 mM Tris, pH 8.0, 25 mM NaCl, 100 μM Zn(OAc)2, 2 mM DTT). The protein concentration was determined by measuring absorbance at 280 nm and the calculated extinction coefficient. The protein was stored at 50 μM concentration at 4° C.
All RNA oligonucleotides were chemically synthesized by Dharmacon or Integrated DNA Technologies. Upon arrival, each RNA was deprotected and stored according to the manufacturer's instructions. Prior to use, the RNA was resuspended in 10 mM Tris-HCl, pH 8.0, 0.1 mM EDTA, and the concentration determined by UV spectrophotometry using the calculated extinction coefficient at 260 nm based on the specific sequence. The sequence of the MEX-5 binding RNA (TCR2) is […] (SEQ ID NO:1). The POS-1 binding RNA (BMF018) is […] (SEQ ID NO:2). The MEX-3 binding RNA (SEQ 14) is […] (SEQ ID NO:3).
The RNA used for the small molecule screen was labeled at the 3′-end with fluorescein by Dharmacon during synthesis. In a few cases, follow up experiments were performed with post-synthetically labeled RNA. In this case, fluorescein 5-thiosemicarbazide (FTSC, Invitrogen) was used to 3′-end label each RNA after treatment with sodium periodate (see Reines, S. A. and Cantor, C. R. (1974) “New fluorescent hydrazide reagents for the oxidized 3′-terminus of RNA” Nucleic Acids Res. 1, 767-786). A representative 50 μl reaction consisted of 0.5 nanomoles RNA, 100 mM NaOAc, pH 5.1, and 5 nanomoles NaIO4. After the reaction was complete (90 minutes at room temperature), the sample was ethanol precipitated by adding 1 μl RNase free glycogen (Invitrogen 20 μg/μl), 1/20th volume of 5 M NaCl, and 2 volumes of 100% ice-cold ethanol. The resulting pellet was resuspended in 50 μl of 100 mM NaOAc, pH 5.1 containing 1 mM FTSC and was allowed to react overnight at 4° C. in the dark. The unreacted label was removed by ethanol precipitation with resuspension of the pellet in a small volume of TE, and purification over a Roche G-25 size exclusion spin column. The labeling efficiency is determined by calculating the ratio of fluorescein absorbance at 490 nm to RNA-fluorescein absorbance at 260 nm. Typical efficiencies are 60-80%.
The ability of MEX-5 to associate with RNA was monitored by fluorescence polarization using a victor V3 or victor V2V plate reader (Perkin Elmer) in 384-well FluoTrak microplates (Grenier). […]

| Structure (SMILES) | remaining activity at 192 µM (POS-1) [%] | remaining activity at 192 µM (MEX-5) [%] |
| --- | --- | --- |
| Cc1ccc(C)c(OCC(=O)Nc2ccc(S(=O)(=O)Nc3nccs3)cc2)c1C [DW] | 19 |  |
| CCCCC(=O)Nc1cccc(NC(=S)NC(=O)C(C)C)c1 [BT] |  | 20.2 |
| CC1=NN(c2ccc(Cl)c(C(=O)O)c2)C(=O)/C1=C/c1cccc(OC(=O)c2cccs2)c1 [DB] | 6.9 |  |
| O=[N+]([O-])c1cccc(S(=O)(=O)Nc2cc(Br)c(O)c3ccccc23)c1 [AJ] |  | 9.23 |
| O=C(NC(=S)N(Cc1ccccc1)Cc1ccccc1)c1ccc([N+](=O)[O-])cc1 [CK] |  | 23.4 |
| CCc1cc(-c2n[nH]c(C)c2-c2nc3ccccc3s2)c(O)cc1OC [CU] |  | 25.3 |
| Oc1ccccc1-c1n[nH]c(=S)n1-c1ccccc1 [BM] |  | 18.8 |
| C=CCn1c(S)nnc1CCc1ccc(OC(C)C)cc1 [CS] |  | 25.2 |
| COc1ccc(C(=O)NC(=S)Nc2cc(C)cc(C)c2)cc1Cl [BN] |  | 18.9 |
| O=C(NC(=S)Nc1ccccc1C(=O)O)c1cc(I)ccc1Cl [DV] | 18.5 |  |
| Cc1ccccc1Cn1c(S)nc2ccccc21 [AX] |  | 14.1 |
| Cc1ccc(S(=O)(=O)Nc2nc(N3C(=O)c4ccccc4C3=O)n(-c3ccccc3)n2)cc1 [AT] |  | 13.2 |
| COc1ccc(N2CC(C(=O)Nc3ccc(S(=O)(=O)Nc4nccs4)cc3)CC2=O)cc1 (stereo not drawn) [DA] | 6.51 |  |
| Cc1c(C(=O)NC(=S)Nc2cc(C(=O)O)ccc2Cl)cccc1[N+](=O)[O-] [ER] | 26.2 |  |
| Cc1cc([N+](=O)[O-])ccc1NC(=O)c1cnccn1 [BG] |  | 17.2 |
| CCOC(=O)Cc1nnc(NC(=O)c2ncn[nH]2)s1 [N] |  | 2.09 |
| CCOC(=O)N1CCN(C(=S)Nc2ccc3nc(-c4ccccn4)c(-c4ccccn4)nc3c2)CC1 [BZ] |  | 21.4 |
| O=C1NN(c2ccc(Cl)c(Cl)c2)C(=O)/C1=C/c1cccc(OC(=O)c2cccs2)c1 [EG] | 22.9 |  |
| CC1=NN(c2ccc(S(N)(=O)=O)cc2)C(=O)/C1=C\c1ccc(OC(=O)c2cccs2)cc1 [DN] | 16.7 |  |
| Sc1nnc(SCc2ccccc2Cl)s1 [CT] |  | 25.2 |
| Cc1ccc(CC(=O)Nc2ccc(S(=O)(=O)Nc3nccs3)cc2)cc1 [EK] | 23.7 |  |
| COc1cc(-c2nnc(S)n2-c2ccc(C)cc2C)cc(OC)c1OC [CF] |  | 22.9 |
| CCOC(=O)C1=C(C)Nc2[nH]c(=O)[nH]c(=O)c2C1c1ccccc1[N+](=O)[O-] (stereo not drawn) [EF] | 22.8 |  |
| O=[N+]([O-])c1cc(C2Nc3ccc4ccccc4c3C3C=CCC32)ccc1O (stereo not drawn) [DE] | 8.86 |  |
| COC(=O)c1c(NC(=O)CCC(=O)O)sc2c1CCC(C(C)(C)C)C2 (stereo not drawn) [DM] | 14.4 |  |
| COc1cc(/C=C2\C(=O)N(c3cccc(C(=O)O)c3)N=C2C)ccc1OC(=O)c1ccco1 [DX] | 19.7 |  |
| Sc1nnc(COc2cccc(Br)c2)n1-c1ccccc1 [BB] |  | 15.4 |
| Cc1ccc(C(=O)Nc2nc(-c3ccccc3)c(-c3ccccc3)o2)cc1 [CC] |  | 22.5 |
| COc1ccc(OCCn2c(NC(C)=O)nc3ccccc32)cc1 [BC] |  | 15.5 |
| Cc1ccccc1OCc1nnc(S)n1C [CN] |  | 23.9 |
